One may read the IC50 as the point on the concentration scale where inhibition reaches its midpoint.

Among the data in patent publication US20260184687A1, “DIHYDROINDENE DERIVATIVES AS MALT1 INHIBITORS” (C4X Discovery Limited, priority 2022, published 2026) are IC50 values, retold here.

One assay concerns the target T1, FL hMALT1 enzyme (Homo sapiens, UniProt Q9UDY8).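 Further: Cell-free protease assay: enzyme preincubated with compound 30 min at room temperature, then cleavage of fluorogenic Ac-LVSR-AMC substrate (100 µM) tracked by fluorescence (ex 360/em 460 nm).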
T1 sequence (Q9UDY8 1-824): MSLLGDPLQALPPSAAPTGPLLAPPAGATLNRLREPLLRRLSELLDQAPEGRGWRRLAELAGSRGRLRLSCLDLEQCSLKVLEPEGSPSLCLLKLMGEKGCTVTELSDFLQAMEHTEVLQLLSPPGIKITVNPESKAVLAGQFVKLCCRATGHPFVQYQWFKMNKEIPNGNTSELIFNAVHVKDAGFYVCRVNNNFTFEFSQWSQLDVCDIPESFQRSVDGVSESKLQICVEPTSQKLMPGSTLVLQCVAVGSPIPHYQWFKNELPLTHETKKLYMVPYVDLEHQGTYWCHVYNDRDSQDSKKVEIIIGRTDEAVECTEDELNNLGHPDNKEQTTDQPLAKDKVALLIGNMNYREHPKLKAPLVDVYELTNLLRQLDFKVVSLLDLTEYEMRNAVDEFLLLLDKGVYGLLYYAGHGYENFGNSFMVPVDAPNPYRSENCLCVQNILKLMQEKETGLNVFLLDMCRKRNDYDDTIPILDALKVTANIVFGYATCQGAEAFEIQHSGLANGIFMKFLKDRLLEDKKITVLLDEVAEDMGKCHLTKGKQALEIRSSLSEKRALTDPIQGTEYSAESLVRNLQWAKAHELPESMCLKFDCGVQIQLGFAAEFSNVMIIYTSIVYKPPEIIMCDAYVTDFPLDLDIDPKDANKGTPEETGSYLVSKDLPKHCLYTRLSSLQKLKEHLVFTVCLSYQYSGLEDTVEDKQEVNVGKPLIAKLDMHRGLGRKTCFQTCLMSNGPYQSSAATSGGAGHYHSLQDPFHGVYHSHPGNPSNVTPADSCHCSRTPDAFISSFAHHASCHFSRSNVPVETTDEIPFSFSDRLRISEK
The assay is described as follows: biochemical.

Assay [1] concerns IL-2 release from stimulated Jurkat cells. Briefly: Human IL-2 Release Phenotypic Assay (Assay 3). The format is cell-based. Particulars: Jurkat cells (clone E6-1), 200 ng/mL PMA + 300 ng/mL ionomycin, IL-2 by ELISA. Summed up:
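IC50 values were fitted by 4-parameter non-linear regression to IL-2 release from Jurkat E6-1 cells. Those cells were stimulated for 48 h with PMA (200 ng/mL) plus ionomycin (300 ng/mL) after a 30-min compound pre-incubation at half-log doses in 0.5% DMSO. Cells had been plated at 50 000/well overnight at 37° C.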
(In general: ELISA stands for enzyme-linked immunosorbent assay.)

Molecules are shown by their SMILES.

Regarding `CN(C(=O)C1CN(C(=O)C2CCOC2)C1)[C@@H](c1ccc(NC2Cc3ccc(Cl)c(Cl)c3C2)cn1)C(F)(F)F` (single isomer, unassigned) [Example 352], the IC50 against FL hMALT1 enzyme stood at 46 nM; in assay [1] (Homo sapiens, Jurkat, 48 h) it was 110 nM.
The matching figures for `CN(C(=O)C1CCS(=O)(=O)CC1)[C@@H](c1ccc(NC2Cc3cccc(C(F)(F)F)c3C2)cn1)C(F)(F)F` (single isomer, unassigned) [Example 191]: 26 nM and 740 nM.
The matching figures for `CN1CCC(C(=O)N(C)[C@@H](c2ccc(NC3Cc4ccccc4C3(C)C)nc2)C(F)(F)F)CC1` (single isomer, unassigned) [Example 144]: 210 nM and 2630 nM.
On the same counts, the results for `CN(C(=O)C1CN(C(=O)C2COC2)C1)[C@@H](c1ccc(NC2Cc3ccc(Cl)c(F)c3C2)cn1)C(F)(F)F` (single isomer, unassigned) [Example 371] are 75 nM and 220 nM.
Take `CN(C(=O)[C@H]1CCC(=O)NC1)[C@@H](c1ccc(NC2Cc3ccc(Cl)c(F)c3C2)cn1)C(F)(F)F` (single isomer, unassigned) [Example 337]: the 50% inhibitory concentration (IC50) worked out at 51 nM on FL hMALT1 enzyme and 170 nM in assay [1] (Homo sapiens, Jurkat, 48 h).
On to `CN(C(=O)C1CC2(CCC(=O)N2)C1)[C@@H](c1ccc(NC2Cc3ccccc3C2(C)C)cn1)C(F)(F)F` (single isomer, unassigned) [Example 232], for which the IC50 was found to be 30 nM on FL hMALT1 enzyme and 180 nM in assay [1] (48 hours).
As for `CN(C(=O)C1CCS(=O)(=O)CC1)[C@@H](c1ccc(NC2Cc3ccc(Cl)cc3C2)nc1)C(F)(F)F` (single isomer, unassigned) [Example 289], the IC50 against FL hMALT1 enzyme was 45 nM; in assay [1] (Homo sapiens, Jurkat, 48 h) it was 300 nM.
On the same counts, the results for `CN1CCC(C(=O)N(C)[C@@H](c2ccc(N[C@H]3Cc4ccccc4C3(C)C)cn2)C(F)(F)F)CC1=O` (single isomer, unassigned) [Example 250] are 41 nM and 300 nM.
As to `CN(C(=O)C1CCNC(=O)C1)[C@@H](c1ccc(NC2Cc3ccccc3C2(C)C)cn1)C(F)(F)F` (single isomer, unassigned) [Example 117], the IC50 against FL hMALT1 enzyme was determined as 240 nM; in assay [1] (48 hours), 2060 nM.
As to `CN(C(=O)C1CNC(=O)CO1)[C@@H](c1ccc(NC2Cc3ccccc3C2(C)C)cn1)C(F)(F)F` (single isomer, unassigned) [Example 136], the half-maximal inhibitory concentration (IC50) amounted to 36 nM against FL hMALT1 enzyme and 310 nM in assay [1] (48 hours).
In the case of `CN(C(=O)[C@H]1CNC(=O)C1)[C@@H](c1ccc(NC2Cc3ccc(Cl)c(F)c3C2)nc1)C(F)(F)F` (single isomer, unassigned) [Example 339], the half-inhibitory concentration (IC50) was determined as 24 nM against FL hMALT1 enzyme and 66 nM in assay [1] (Homo sapiens, Jurkat, 48 h).
The matching figures for `CN(C(=O)[C@@H]1CNC(=O)C1)[C@@H](c1ccc(NC2Cc3ccc(Cl)c(F)c3C2)cn1)C(F)(F)F` (single isomer, unassigned) [Example 317]: 72 nM and 113 nM.
Take `CCN(C(=O)C1CCS(=O)(=O)CC1)[C@@H](c1ccc(NC2Cc3ccccc3C2(C)C)cn1)C(F)(F)F` (single isomer, unassigned) [Example 188]: the figures for the IC50 (against FL hMALT1 enzyme; in assay [1] (48 hours)) were 47 nM and 650 nM, respectively.
`CN(C(=O)C1CCNC(=O)C1)[C@@H](c1ccc(NC2Cc3ccccc3C2(C)C)cn1)C(F)(F)F` (single isomer, unassigned) [Example 116]: the half-maximal inhibitory concentration (IC50) stood at 68 nM on FL hMALT1 enzyme and 510 nM in assay [1] (48 hours).
On the same counts, the results for `CN(C(=O)C1CCCNC1)[C@@H](c1ccc(NC2Cc3ccccc3C2(C)C)cn1)C(F)(F)F` (single isomer, unassigned) [Example 125] are 62 nM and 330 nM.
The matching figures for `CN(C(=O)C1CNC(=O)CO1)[C@@H](c1ccc(NC2Cc3ccccc3C2(C)C)cn1)C(F)(F)F` (single isomer, unassigned) [Example 137]: 150 nM and 1250 nM.
As for `CN(C(=O)C1CCC(=O)NC1)[C@@H](c1ccc(NC2Cc3ccccc3C2(C)C)cn1)C(F)(F)F` (single isomer, unassigned) [Example 107], the half-maximal inhibitory concentration (IC50) was 45 nM on FL hMALT1 enzyme and 410 nM in assay [1] (48 hours).
Regarding `CN(C(=O)[C@H]1CNC(=O)C1)[C@@H](c1ccc(NC2Cc3ccc(Cl)c(Cl)c3C2)nc1)C(F)(F)F` (single isomer, unassigned) [Example 347], the IC50 against FL hMALT1 enzyme was found to be 16 nM; in assay [1] (Homo sapiens, Jurkat, 48 h), 41 nM.
For `CN(C(=O)C1CN(C(=O)C2CCOC2)C1)[C@@H](c1ccc(NC2Cc3ccc(Cl)c(Cl)c3C2)cn1)C(F)(F)F` (single isomer, unassigned) [Example 353], the IC50 at FL hMALT1 enzyme worked out at 33 nM; in assay [1] (48 hours) it was 63 nM.
As for `CN(C(=O)C1CCS(=O)(=O)CC1)[C@@H](c1ccc(NC2Cc3ccc(F)c(F)c3C2)cn1)C(F)(F)F` (single isomer, unassigned) [Example 261], the IC50 came to 82 nM on FL hMALT1 enzyme and 1410 nM in assay [1] (48 hours).
The matching figures for `CN(C(=O)C1CCNC(=O)C1)[C@@H](c1ccc(NC2Cc3ccccc3C2(C)C)cn1)C(F)(F)F` (single isomer, unassigned) [Example 118]: 49 nM and 280 nM.
The matching figures for `CN(C(=O)C1CCNC(=O)C1)[C@@H](c1ccc(NC2Cc3ccccc3C2(C)C)cn1)C(F)(F)F` (single isomer, unassigned) [Example 119]: 150 nM and 1720 nM.
For `CN(C(=O)C1CCS(=O)(=O)CC1)[C@@H](c1ccc(NC2Cc3ccc(Cl)c(C4CC4)c3C2)cn1)C(F)(F)F` (single isomer, unassigned) [Example 306], the 50% inhibitory concentration (IC50) on FL hMALT1 enzyme was found to be 9 nM; in assay [1] (Homo sapiens, Jurkat, 48 h) it was 200 nM.
Take `CNC(=O)N1CC(C(=O)N(C)[C@@H](c2ccc(NC3Cc4ccccc4C3(C)C)cn2)C(F)(F)F)C1` (single isomer, unassigned) [Example 228]: the IC50 against FL hMALT1 enzyme amounted to 57 nM; in assay [1] (48 hours), 1000 nM.
On to `CN(C(=O)[C@H]1C[C@H](N(C)C)C1)[C@@H](c1ccc(NC2Cc3ccccc3C2(C)C)nc1)C(F)(F)F` (single isomer, unassigned) [Example 114], for which the half-maximal inhibitory concentration (IC50) amounted to 190 nM against FL hMALT1 enzyme and 1020 nM in assay [1] (Homo sapiens, Jurkat, 48 h).
Consider `CN(C(=O)C1C2CS(=O)(=O)CC21)[C@@H](c1ccc(NC2Cc3ccccc3C2(C)C)cn1)C(F)(F)F` (single isomer, unassigned) [Example 216], for which the half-inhibitory concentration (IC50) on FL hMALT1 enzyme came to 51 nM; in assay [1] (48 hours) it was 1900 nM.
For the molecule `CN(C(=O)[C@H]1CCC(=O)NC1)[C@@H](c1ccc(NC2Cc3ccc(Cl)c(C4CC4)c3C2)cn1)C(F)(F)F` (single isomer, unassigned) [Example 330], the IC50 on FL hMALT1 enzyme is 16 nM; in assay [1] (Homo sapiens, Jurkat, 48 h) it was 220 nM.
As to `CN(C(=O)C1C2CS(=O)(=O)CC21)[C@@H](c1ccc(NC2Cc3ccccc3C2(C)C)cn1)C(F)(F)F` (single isomer, unassigned) [Example 215], the half-maximal inhibitory concentration (IC50) at FL hMALT1 enzyme stood at 88 nM; in assay [1] (48 hours), 630 nM.
On the same counts, the results for `CN(C(=O)[C@H]1C[C@@]2(CCN2C)C1)[C@@H](c1ccc(NC2Cc3ccccc3C2(C)C)cn1)C(F)(F)F` (single isomer, unassigned) [Example 156] are 170 nM and 1720 nM.
On to `CN(C(=O)C1CCNC(=O)C1)[C@@H](c1ccc(N[C@H]2Cc3ccc(Cl)cc3C2)cn1)C(F)(F)F` (single isomer, unassigned) [Example 314], for which the IC50 on FL hMALT1 enzyme was 150 nM; in assay [1] (Homo sapiens, Jurkat, 48 h), 380 nM.
